These results are taken from patent US20250297300A1, “DETECTION, STAGING, MONITORING AND TREATING A DISEASE OR A CONDITION” (SUNBIRD BIO, INC., priority 2021, published 2025).

Primed or numbered codes have the meaning given here. Where no end group is shown, it is not given here. The star is where a group is joined. 5FAM = O=C1OC2(c3ccc(O)cc3Oc3cc(O)ccc32)c2ccc(C(=O)*)cc21; K(CPQ2) = lysine carrying the CPQ2 quencher; FAM = fluorescent reporter; PEG2′ = not defined here

In data set [1] the test system is proteases in plasma sensed by Probe #102 (cathepsin L). The experiment in a line: Inhibitor profiling of Probe #102 cleavage in NASH and healthy plasma. It is filed as biochemical, mice. The conditions noted are these: for effect of inhibitor on signal for NASH or healthy samples: Probe #102. The protocol:
For this experiment, all plasma samples were prepared individually and diluted 1/10e in PBS with inhibitor added directly to the samples. Inhibitor was prepared at 15× concentration to final. Substrates were diluted in DI water at 18 uM, such that the final concentration on the plate would be 6 uM. All samples were prepared such that their last dilution on the plate would not affect the desired final concentration. 10 ul of each individual sample was pipetted into their corresponding wells, and the plate was then spun down in the centrifuge at 1500 RPM for 30 seconds to coat the bottom of each well with the sample. 5 ul of the 18 uM substrate solution was pipetted into each well being used on a 384 well plate, and then the plate was spun down in the centrifuge at 1500 rpm for 30 seconds. The plate was placed immediately in the plate reader at 37° C. for a 30-minute-long fluorescence kinetic read at 485/535 extended gain.
To assess the proteolytic cleavage pattern of Probe #102, samples were tested using a pool of broad inhibitors for serine, cysteine, threonine, MMP and aspartic protease family members (broad inhibitor) to assess general protease activity, AEBSF for serine proteases, E64 for cysteine proteases, CTSi for broad cathepsin inhibition of cathepsins L,S,K and B, or specific inhibitors for cathepsin K (L00625), for cathepsin L (SID) or cathepsin B (CA074).

The subject of data set [2] is cathepsin and/or MMP protease activities. Description: Ex vivo FRET probe cleavage in plasma: NASH progression, regression, healthy mice. It is filed as biochemical. The note with it: K2EDTA plasma at 20 weeks. The source says:
Plasma samples were collected from all animals at 20 weeks.
The probes showing the most differentiation in NASH were linked to cathepsin and/or MMP protease activities.

Data set [3] has as its system caspase activity in hepatitis. The experiment in a line: Ex vivo FRET probe cleavage in plasma of Jo2 fulminant hepatitis mice. It is filed as biochemical. The conditions noted are these: plasma 3 hours after Jo2 injection. The protocol: Fulminant hepatitis is induced after injection intraperitoneal of monoclonal antibody anti-CD95 (Jo2, BD biosciences, 4 ug/animal), and mouse plasma samples were collected 3 hours after Jo2 injection.

For data set [4], the system named is COVID-related proteases. The experiment in a line: Ex vivo FRET probe cleavage in COVID positive vs negative swab samples. It counts as biochemical.
In another data set the target is T1, Granzyme B (Homo sapiens, UniProt P10144).
T1 construct: from tissue; host or cells: COVID swab samples
T1 sequence (P10144 21-247): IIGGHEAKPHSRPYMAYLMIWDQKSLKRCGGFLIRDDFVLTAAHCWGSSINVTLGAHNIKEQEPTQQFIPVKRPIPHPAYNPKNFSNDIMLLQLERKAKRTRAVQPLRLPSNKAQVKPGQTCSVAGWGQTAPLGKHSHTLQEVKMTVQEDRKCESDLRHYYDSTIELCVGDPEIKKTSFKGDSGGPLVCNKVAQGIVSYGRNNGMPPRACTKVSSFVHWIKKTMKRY
The experiment in a line: Inhibition experiments on Probe #647 signal in COVID swab samples. It is filed as biochemical. The conditions noted are these: healthy vs COVID samples, FIG. 39.

The subject of data set [5] is carboxylesterase 1, phospholipase A2 and lipoprotein lipase. The experiment in a line: Spiked recombinant enzymes in human plasma with resorufin oleate as substrate. It counts as biochemical.
Data set [6] deals with COVID-related proteases. Description: Ex vivo FRET probe cleavage in COVID vs healthy K2EDTA and Lithium Heparin plasma. It counts as biochemical. The note with it: K2EDTA and Lithium Heparin plasma sets.
A further data set relates to NASH-related proteases. Description: Ex vivo FRET probe cleavage in K2EDTA plasma of NASH (CDAHFD) vs healthy (CD) mice. It counts as biochemical. The note with it: n=10 and pooled. The protocol: All animals were used in accordance with animal care guidelines. Plasma was obtained from these blood samples by centrifugation at 3,500 RPM for 20 min at 4° C. The plasma was stored at −80° C. until it was needed for experimental purposes.
Samples were mixed with protease substrates and quenchers/reporters in 96-well plates. The 96-well plates were read on a Biotech Synergy H1, using 465,535 excitation/emission settings.
A single plasma sample was contacted with the probes for each predetermined protease to provide a multiplex assessment of protease activity in the sample.

For data set [7] the following is noted: cited from earlier work.

For `NCCc1ccc(S(=O)(=O)F)cc1` [AEBSF], the “decrease of RFU signal by inhibitor, NASH” value in data set [1] (NASH plasma diluted 1/10 in PBS, Probe #102 6 uM) was determined as 65%. The “decrease of RFU signal by inhibitor, healthy” value in [1] (healthy plasma diluted 1/10 in PBS, Probe #102 6 uM) stood at 60%. As for “Probe #428: FRET peptide probe of Table 1 ({FAM}-GDRRKKLTQG-{K(CPQ2)-PEG2′-dK-dK-Gly-Cys})”, the “differentiation among healthy, regression and NASH samples” value (“differentiation among healthy” below) in data set [2] is on record as “can differentiate”. With “Probe #647: Caspase centric probe; signal measures the activity of protease Granzyme B (GAIEPDSGG; also: 5FAM, Lys(CPQ2), PEG2, D-Lys-D-Lys, GC-NH2, places not given here)”, the “differentiation among healthy” value in data set [2] was “can differentiate”. The “differentiation between healthy and Jo2 samples” value in data set [3] was “show contrast that is specific and sensitive to the Jo2 model”. For the same compound, in the data set with COVID-related proteases [4] (adjusted RFU across timepoints), the “number of active samples, COVID+” value is given as 7 samples and the “number of active samples, COVID-” value was found to be 1 samples. Moreover, the “differentiation between COVID+ and COVID- samples” value with COVID-related proteases [4] (swabs in saline) is on record as “key differentiator”. In addition, the “protease whose activity the probe signal measures” value with Granzyme B was “measures the activity of protease Granzyme B”. For the compound “Probe #8: Caspase centric probe (GVDVADGK; not fully specified; 5-FAM, CPQ2 quencher, PEG2, D-Lys-D-Lys-GC)”, the “differentiation between healthy and Jo2 samples” value in data set [3] was “show contrast that is specific and sensitive to the Jo2 model”.

With `CCCC(=O)O` [butyrate], in [5], the “suitability as substrate for enzyme detection” value was “promising for detection of broad range of enzymes”. Take “Probe #96: FRET peptide probe of Table 1 ({FAM}-GRPLALWESQG-{K(CPQ2)-PEG2′-dK-Gly-Cys})”: the “differentiation among healthy” value in data set [2] was “can differentiate”. “Probe #462: a MMP8 substrate (GKKAKRNALG; also: FAM, K(CPQ2), PEG2, D-Lys-D-Lys-GC, places not given here)”: the “differential cleavage between COVID and healthy samples” value in the data set with COVID-related proteases [6] is “demonstrated contrast in both sets”. As for “Probe #102: a CTSL sensing probe; FRET peptide probe with fluorescent reporter and quencher ({FAM}-GKPILFFRLKG-{K(CPQ2)-PEG2′-dK-dK-Gly-Cys})”, the “attribution of measured rate of fluorescence increase” value in the data set with NASH-related proteases was “can be ascribed to protease activity and to NASH disease”. The “differentiation among healthy” value in [2] is given as “can differentiate”. The “protease to whose activity the probe responds” value in [1] (from inhibitor experiments, FIG. 30) was “specifically responds to the activity of cathepsin L (CTSL)”. On to `CC(C)C[C@H](NC(=O)[C@H]1O[C@@H]1C(=O)O)C(=O)NCCCCN=C(N)N` [Probe E64, E64], for which the “effect of inhibitor on signal for NASH or healthy samples” value (“effect of inhibitor on signal” for short) in data set [1] is “decreased NASH signal significantly”. “Probe #18: a Neutrophil elastase substrate (GAAPVGK; also: 5-FAM, CPQ2 quencher, PEG2-kk-GC, places not given here)”: the “differential cleavage between COVID and healthy samples” value with COVID-related proteases [6] is on record as “demonstrated contrast in both sets”. Turning to “Probe #12: Caspase centric probe (GDEVDGK; not fully specified; 5-FAM, CPQ2 quencher, PEG2, D-Lys-D-Lys-GC)”, the “differentiation between healthy and Jo2 samples” value in [3] was “show contrast that is specific and sensitive to the Jo2 model”. Regarding “Probe #492: FRET peptide probe of Table 1 ({FAM}-GQRANSIRVTWG-{K(CPQ2)-PEG2′-dK-dK-Gly-Cys})”, in the data set with NASH-related proteases, the “attribution of measured rate of fluorescence increase” value is “can be ascribed to protease activity and to NASH disease”. Moreover, in [2], the “differentiation among healthy” value is listed as “can differentiate”. For the compound `CN1CCN(c2nc(-c3ccc(C(=O)NC4(C(=O)NCC#N)CCCCC4)cc3)cs2)CC1` [Probe L006235], the “effect of inhibitor on signal” value in [1] is reported as “did not significantly decrease signal”.

For “Probe #520: FRET peptide probe of Table 1 (5FAM-GKPISLISSG-{K(CPQ2)-PEG2′-Gly-Cys})”, the “differentiation among healthy” value in data set [2] is “can differentiate”.

Take resorufin oleate: in data set [5], the “suitability as substrate for enzyme detection” value was “promising for detection of broad range of enzymes”. “Probe #84: a Furin substrate (GRVKRGLAGK; also: 5-FAM, CPQ2 quencher, PEG2-kk-GC, places not given here)”: the “differential cleavage between COVID and healthy samples” value in the data set with COVID-related proteases [6] is reported as “demonstrated contrast in both sets”.

As for `O=c1[nH]c(-c2ccccc2O)nc2ccccc12` [HPQ, 2-(2″-hydroxyphenyl)-4(3H)-quinazolinone], the solubility in water result in [7] is “strictly insoluble in water”. Regarding `CCCNC(=O)[C@H]1O[C@@H]1C(=O)N[C@H](C(=O)N1CCC[C@H]1C(=O)O)[C@@H](C)CC` [CA074], the “effect of inhibitor on signal” value in [1] is on record as “did not significantly decrease signal”.
